Reference: US20200054563A1, “PHARMACEUTICAL COMPOSITION FOR IN VIVO DELIVERY, METHOD OF PREPARATION OF A SUBSTANTIALLY WATER-INSOLUBLE PHARMACOLOGICALLY ACTIVE AGENT FOR IN VIVO DELIVERY, AND METHOD OF TREATING DISEASE” (ZY Therapeutics Inc., priority 2017, published 2020)

Test: Stability of the drug substance during the homogenization process (HPLC spectra)
Type: physicochemical
Settings: nanosuspension prepared at pH 7.2 without pH change; additional peak in HPLC spectra (FIG. 2C), in some cases
Procedure: The formulation was filtered through a 0.22 μm membrane for sterilization. The Paclitaxel content before and after filtration was measured by HPLC. […] The split peak in HPLC may indicate the degradation of the drug during the process.

Structure (SMILES): CC(=O)O[C@H]1C(=O)[C@@]2(C)[C@H]([C@H](OC(=O)c3ccccc3)[C@]3(O)C[C@H](OC(=O)[C@H](O)[C@@H](NC(=O)c4ccccc4)c4ccccc4)C(C)=C1C3(C)C)[C@]1(OC(C)=O)CO[C@@H]1C[C@@H]2O [Paclitaxel]
- stability of the drug substance during the process: not stable during the process
